The values below come from a melting point compilation (Tetko et al.; mined from patent text by program, amines drawn as free bases though some values may be those of a salt).

Broadly, the melting point is the temperature, or range, at which the solid turns liquid.

On to `NS(=O)(=O)c1cc2c(s1)CCC(O)C2` (stereo not drawn), for which the melting point lay within 176 to 179 °C.
Turning to `CC(C)(C)OC(=O)NCC(=O)Nc1cccc(NC(=O)C(=O)N2CCC(Cc3ccccc3)CC2)c1`, the melting point lay in the range of 81 to 85 °C.
Then `O=C(NCc1ccccc1)Nc1ccc(CN2C(=O)[C@H]3CCC[C@H]3N(C(=O)CN3C(=O)c4ccccc4C3=O)c3ccccc32)cc1` (relative stereo), with 169 to 171 °C.
In turn, `Cc1cc2c(-c3ccccc3Cl)c(C(=O)O)c(=O)n(C)c2cc1C` yielded a melting point of 251 to 252 °C.
With `Cc1cc(S(=O)(=O)O)ccc1NC(=O)NN`, the melting point fell in the range of 252 to 255 °C.
`COC(=O)c1ccn2ncnc2c1` returned a melting point of 125 to 126 °C.
As to `Cc1oc(-c2ccccc2)nc1COc1cccc([N+](=O)[O-])c1`, the melting point lay in the range of 106 to 107 °C.
In the case of `COc1ccc(N)cc1C(=O)NCc1ccc(C(F)(F)F)cc1`, the melting point was in the range of 115 to 117 °C.
`Nc1cccc2c1C(=O)c1c(O)cccc1C2=O` yielded a melting point of 305 to 308 °C.
Consider `CCCn1cnc2c1c(=O)n(CCCCC(C)=O)c(=O)n2CC`, for which the melting point is 81 to 82 °C.
Then `CS(=O)(=O)c1nccc(-c2ccccc2)n1`, with 136 to 137 °C; and `CCOC(=O)CN(c1ccccc1)[C@H]1c2cc(C#N)ccc2OC(C)(C)[C@@H]1O`, with 182 to 183 °C.
Then `Cn1c(O)nc2cc3c(cc21)C(C)(C)C(=O)N3`, with 364 to 367 °C.
The figure for `SCCC1c2ccccc2-c2ccccc21` is 38 to 40 °C; for `COc1c(C)cc(C)cc1CNC(=O)CCl` it is 124 °C; for `COC(=O)c1cccc(COc2ccc(S(=O)(=O)c3ccc(C)nc3Nc3c(C)cc(C)cc3C)cc2)c1` it is 148 to 150 °C.
With `COC(=O)CN(c1ccccc1C)S(=O)(=O)c1ccccc1C(=O)c1cc(OC)c2c(c1)OCO2`, the melting point was 159 to 170 °C.
Consider `O=C1OC(=O)C2CC(F)(F)CC12` (stereo not drawn), for which the melting point was 50 °C.
The molecule `COc1ccc(OC)c(C(=O)Nc2ccc(N3CCCC3)cc2C(C)=O)c1` had a melting point of 137 to 140 °C.
The molecule `Cc1nsc(N=Nc2ccc(N(CCO)CCO)cc2NC(=O)C(C)C)c1C#N` displayed a melting point of 152 to 154 °C.
For `COc1c(C(=O)NC2CN3CCC2CC3)cc(Cl)c2c1CCCN2` (stereo not drawn), the melting point lay within 105 to 108 °C.
`C#CCn1c(-c2ccccc2)nn(C(C)(C)C)c1=O` gave a melting point of 82 to 83 °C.
In turn, `O=C(O)CCC(CC1(C(=O)NC2CCC(C(=O)OCc3ccccc3)CC2)CCCC1)C(=O)OCc1ccccc1` (stereo not drawn) displayed a melting point of 103 to 104 °C.
`COc1ccccc1[Si](C)(C)COc1cc(C(C)(C)C)c(O)c(C(C)(C)C)c1` showed a melting point of 89 to 90 °C.
Turning to `Cc1ccc(-c2cccc3c2CC(CNC(=O)OCc2ccccc2)O3)cc1` (stereo not drawn), the melting point lay in the range of 134 to 136 °C.
Take `COC(=O)CN1C(=S)CN=C(c2ccccc2Cl)c2cc(Cl)ccc21`: the melting point lay within 191 to 192 °C.
On to `CC(c1cc2ccccc2s1)N(O)C=O` (stereo not drawn), for which the melting point lay in the range of 115 to 116 °C.
The figure for `C=CCN(CC=C)CC(=O)N1c2ccccc2N(C)C(=O)c2cnc(-c3ccccc3)nc21` is 139 to 140 °C; for `Cc1ccn(-c2nc(C)c(C(=O)NCc3ccccc3)s2)c(=O)c1` it is 145 to 147 °C; for `Cc1noc(NS(=O)(=O)c2ccccc2-c2ccccc2CO)c1C` it is 70 to 80 °C.
The figure for `CCC1OC1CC(=O)OC(C#N)c1ccc2ccccc2c1` (stereo not drawn) is 60 to 61 °C.
`CC(C)(S)C(=O)NC(=O)[C@@H](N)CS`: the melting point lay within 124 to 125 °C.
For `C#CCOc1nc(-n2ccnc2)c(I)c(C(F)(F)F)n1`, the melting point was 128 to 129 °C.
Then `COc1ccc(NC(=O)c2ccc([N+](=O)[O-])c(OC)c2)cc1`, with 168 to 169 °C; and `CC(C)c1ccc(N(Cc2ccc(N(C)C)cc2)C(=O)C2CCCc3ccc(O)cc32)cc1` (stereo not drawn), with 214 to 217 °C; and `CCCSc1ncnc2c(N3CCCCC3)nc(Cl)nc12`, with 107 to 109 °C.
The figure for `CCCN=C(NCCC)c1cc(Cl)ccc1[N+](=O)[O-]` is 63 to 64 °C; for `COC(=O)c1ccc(Cl)c(-n2nnn(C)c2=O)c1Cl` it is 135 to 137 °C; for `Cn1sc(Cl)c(Cl)c1=O` it is 119 to 120 °C.
The figure for `Cc1nc2ccccc2n1C1CCNCC1` is 130 to 132 °C; for `CC(=C1SC(=O)NC1=O)c1ccc(OCCOc2c(-c3ccc(F)cc3)n(C)c3ccc(F)cc3c2=O)cc1` it is 245 to 248 °C; for `O=C(O)c1c[nH]c2c(=O)c3cc(Cl)ccc3oc2c1=O` it is 325 to 327 °C.
In turn, `O=C1C(=c2[nH]c(=c3[nH]c(=C4C(=O)c5ccccc5C4=O)c4ccccc34)c3ccccc23)C(=O)c2ccccc21` showed a melting point greater than 300 °C.
Regarding `O=c1cc(-c2ccncn2)nc2n1CCC1(CCNC1)N2` (stereo not drawn), the melting point is 226 to 228 °C.
`Fc1cc(N2CCN(C3CCN(c4cccc5cccnc45)CC3)CC2)c2ncccc2c1` displayed a melting point of 211 °C.
`COc1ccc(-c2cc(=O)c3c(OC)c(I)c(OC)cc3o2)cc1` had a melting point of 191 to 194 °C.
On to `FC(F)(F)c1[nH]c(-c2ccc(Cl)cc2)c(Br)c1C(F)(F)F`, for which the melting point fell in the range of 64.5 to 65 °C.
`O=[N+]([O-])c1ccc(Oc2ncc(C(F)(F)F)cc2Cl)cc1` registered a melting point of 90 to 91 °C.
Then `COc1cc(COc2ncccc2C#N)ccc1OCc1nc(-c2ccco2)oc1C`, with 137 to 138 °C; and `O=C1CCC(N2C(=O)c3cccc(NCCOCc4ccccc4)c3C2=O)C(=O)N1` (stereo not drawn), with 158 to 160 °C.
`Cc1oc(C2CC2)nc1COc1ccc(CC(OC(C)C)C(=O)O)c2sccc12` (stereo not drawn): the melting point was in the range of 71 to 72 °C.
Turning to `Nc1cc([N+](=O)[O-])cc2c1CCCC2`, the melting point was found to be 77 °C.
In turn, `CC(C)C(=O)NCCc1ccc(NC(=O)C=C2CC(C(=O)O)Nc3cc(Cl)cc(Cl)c32)cc1` (racemic) gave a melting point of 216 to 218 °C.
Then `CC(C)(C)OC(=O)C[C@H](O)CC#N`, with 63 to 64 °C; and `O=CN1CC2CC1CN2c1cc2c(cc1F)c(=O)c(C(=O)O)cn2-c1ccc(F)cc1` (stereo not drawn), with 274 to 276 °C.
Take `O=Cc1ccc(CN2C(=O)c3ccccc3C2=O)c2ccccc12`: the melting point fell in the range of 190 to 192 °C.
`Cc1nn(-c2ccccc2)c(C)c1CC(N)=O` showed a melting point of 169 to 170 °C.
Then `CNC(=O)NCCn1c(-c2ccc(CCN3CCOCC3)cc2)csc1=Nc1ccc(F)c(C)c1`, with 167 to 171 °C; and `CON=Cc1cc(N=c2sc(=S)n3n2CCCC3)c(F)cc1Cl`, with 128 to 133 °C; and `CCOCc1nc2c(N)nc3cc(N4CCCC4=O)cnc3c2n1CC(C)C`, with 198 °C.
Molecule `COc1cc(N)c(Cl)cc1C(=O)NCC12CCCN(CCC1)C2` showed a melting point of 202 to 203 °C.
The molecule `COc1ccc(-n2cnc(-c3cc(OC)c(OC)c(OC)c3)c2-c2ccc(OC)c(O)c2)cc1` gave a melting point of 65 to 67 °C.
`Cc1cc(OCCC[Si](C)(C)C)c(Cl)cc1[N+](=O)[O-]` registered a melting point of 66 to 68 °C.
